# Reference: ChEMBL document CHEMBL1144698, “New approach to measure protein binding based on a parallel artificial membrane assay and human serum albumin” (J Med Chem, 2008)
# Legend:
# Type in all cases: ADME
# Albumin [1] = biological target: T1, Albumin (Homo sapiens, UniProt P02768); test: Binding affinity to human serum albumin by PAMPA method
# Albumin [2] = biological target: T1, Albumin; test: Binding affinity to 100 uM human serum albumin at 50 uM by PAMPA method
# Albumin [3] = biological target: T1, Albumin; test: Binding affinity to 50 uM human serum albumin at 10 uM by PAMPA method
# Albumin [4] = biological target: T1, Albumin; test: Binding affinity to 600 uM human serum albumin at 10 uM by PAMPA method
# Albumin [5] = biological target: T1, Albumin; test: Binding affinity to 100 uM human serum albumin at 10 uM by PAMPA method
# Albumin [6] = biological target: T1, Albumin; test: Binding affinity to 300 uM human serum albumin at 10 uM by PAMPA method
# T1 sequence (P02768 whole entry): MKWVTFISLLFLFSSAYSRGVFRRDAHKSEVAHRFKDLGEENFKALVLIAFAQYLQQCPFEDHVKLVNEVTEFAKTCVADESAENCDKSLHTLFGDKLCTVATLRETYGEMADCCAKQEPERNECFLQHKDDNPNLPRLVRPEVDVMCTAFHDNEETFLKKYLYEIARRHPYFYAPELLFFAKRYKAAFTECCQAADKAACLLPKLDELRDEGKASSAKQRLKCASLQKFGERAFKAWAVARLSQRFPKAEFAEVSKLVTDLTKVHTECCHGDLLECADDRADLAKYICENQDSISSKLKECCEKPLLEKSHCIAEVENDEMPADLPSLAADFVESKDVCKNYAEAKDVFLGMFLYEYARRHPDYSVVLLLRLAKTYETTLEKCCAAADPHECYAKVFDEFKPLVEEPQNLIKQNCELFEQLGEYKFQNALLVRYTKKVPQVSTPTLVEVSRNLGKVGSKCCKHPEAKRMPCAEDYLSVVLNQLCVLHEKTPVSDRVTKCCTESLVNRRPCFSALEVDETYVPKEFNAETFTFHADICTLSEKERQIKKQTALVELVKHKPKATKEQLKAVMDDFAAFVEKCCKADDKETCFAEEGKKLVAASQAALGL
Structure (SMILES),Kd (Albumin [1]),Kd (Albumin [2]),Kd (Albumin [3]),Kd (Albumin [4]),Kd (Albumin [5]),Kd (Albumin [6])
CNCCCN1c2ccccc2CCc2ccccc21 [DESIPRAMINE],851 µM,,,,,
CC(C)NCC(O)COc1cccc2ccccc12 (configuration not stated) [PROPRANOLOL],437 µM,437 µM,355 µM,631 µM,661 µM,603 µM
